One data set addresses human MALT-1 protein (Homo sapiens (Human), UniProt Q9UDY8). The data set can be described thus: MALT-1 Biochemical Assay (Quench-FRET enzyme assay). The conditions noted are these: human MALT-1 6 nM, substrate 2 μM, 40 min preincubation. In short, it runs like this: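 Human MALT-1 (6 nM) preincubated 40 min at room temperature with compound in pH 7.5 HEPES buffer containing 0.8 M sodium citrate and 2 mM DTT. Then 2 μM quenched TAMRA/QSY7 peptide substrate added for 60 min. Cleavage read by fluorescence (Ex 535/Em 590); EC50 is half-maximal inhibition of protease activity.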

Another data set deals with OCI-LY3 IL6. As to the kind of experiment: MALT-1 Cell IL-6 AlphaLISA Assay. Format: cell-based. The conditions noted are these: Homo sapiens; OCI-LY3 cells, 48 hours incubation; read-out: OCI-LY3 IL6 48 hour Inhibition EC50. The procedure, abridged: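 MALT-1-dependent ABC-DLBCL OCI-LY3 cells were seeded at 50,000 cells/mL onto compound (30 μM to 1.5 nM) and incubated 48 hours at 37° C. Secreted human IL-6 in the medium was measured by AlphaLISA with acceptor beads, biotinylated anti-IL-6 antibody and streptavidin donor beads.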
In general terms: Bead proximity is the source of the signal in Alpha formats.

Another data set deals with CYP 3A4 mRNA. As to the kind of experiment: CYP3A4 Induction Assay (qPCR, human hepatocytes). Format: in vitro ADME. The following applies: 10 μM compound, relative to rifampicin 10 μM. On the procedure:
(§1) CYP induction by compounds of the Examples was evaluated in vitro by determining the expression levels of CYP 3A4 mRNA using the qPCR (quantitative polymerase chain reaction) assay. On day one, cryopreserved human hepatocytes were thawed in prewarmed (37° C.) thawing medium (cryopreserved hepatocyte recovery medium, Gibco™ CM 7000; Thermo Fisher Scientific), centrifuged (1000 g for 10 minutes) and resuspended in plating medium (Gibco™ CM3000—Williams Medium E supplemented with hepatocytes plating supplement pak-serum containing; Thermo Fisher Scientific). Cells were counted by trypan blue exclusion using a hemocytometer and adjusted to a cell density of […]. Thereafter, […] of cell suspension was aliquoted per well in a 96-well plate, resulting in 60,000 cells/well. Plates were shaken in the north-south and east-west direction during plating. Plated cells were incubated at 37° C/5% CO2 in a humidified cell culture incubator for 4-6 hours. During this time, incubation medium (Gibco™ CM4000, cell maintenance supplement pack; Thermo Fisher Scientific) was mixed with Gibco™ Geltrex™ (Thermo Fischer Scientific) at the appropriate GeltrexTM protein concentration. Following recovery, medium was removed from cells and replaced with freshly prepared incubation medium. Cells were incubated overnight in a cell culture incubator (37° C./5% CO2).
(§2) The next day the incubation medium was prepared by combining the hepatocyte maintenance supplement pack with Williams Medium E. The medium was warmed to 37° C. 1000× dimethyl sulfoxide compound stocks of the compounds of the Examples were prepared to the desired concentrations. 10 mM compound stocks in dimethyl sulfoxide were diluted (1 μL to 1 mL CM4000; final concentration=10 μM). Overlay medium was aspirated and […] dose solution added to the desired labeled 96 well plate. Cells were then dosed with compound (10 μM) and prototypical induces at the targeted concentrations either 50 i.tM for omeprazole (Sigma 0104/lotBCBF-2161V) or 10 i.tM for rifampicin (Sigma R3501/lot 011M1159V). A negative control, probenecid, was dosed at 10 i.tM (Sigma P8761/lot 013K0148).
(§3) On day 3, RNA isolation was performed. All surfaces were cleaned using RNase RNAy. Total RNA was isolated using MagMAX Express 96 RNA Isolation System (Life Technologies, AM1830). Briefly, hepatocytes were washed once with 1X PBS (phosphate buffered saline). 145 μL of RNA Lysis Buffer was added to each well and each well was mixed by pipetting several times. Lysate was then transferred to a well of a 96 well Binding Plate. Samples were then mixed with 20 μL magnetic beads coming from the kit. RNA bound to beads was then captured by the magnetic tip manifold and beads were washed with the wash solution. Samples were treated with TURBOTmDNase. After TURBOTmDNase treatment, RNA was rebound to beads and washed with the provided wash buffer an additional two times. Beads are then dried, and RNA was eluted with 50 μL elution buffer. The eluted mRNA was transferred from the wells to RNase-free sealable microtiter plates and stored at -80° C. until use.
(§4) Following mRNA isolation, reverse transcription (RT) reactions were performed using TaqmanTm Reverse Transcription Reagents (ThermoFisher Scientific). RT master mix was prepared by mixing 2.5 μL 10× RT buffer, 5.5 μL 25 mM MgCl2, 5μL deoxyNTP mixture, 1.25 50 mM random hexamers, 0.5 μL 2× RNAse inhibitor, 0.625 μL multiscript RTase (50U/μL) and 0.625 μL water. An aliquot of RT mix (16 μL) and an aliquot of mRNA sample (9 μL) was added to each well of a 96-well plate. The SimpliAmpTM Thermal cycler PCR System VIIA7 from Applied Biosystems was used for reverse transcription under the following conditions: segment 1: 25° C. for 10 minutes; segment 2: 45° C. for 45 minutes; segment 3: 95° C. for 5 minutes; and segment 4: 4° C. hold; with 1 cycle for each segment. […]
On the technique in general: Quantitative PCR measures a nucleic acid by following its amplification.

Another data set relates to CYP3A4 mRNA. The data set can be described thus: CYP3A4 Induction Assay (qPCR, human hepatocytes). The data set is classed as in vitro ADME. The following applies: cryopreserved human hepatocytes (plated), 10 μM compound, mRNA fold over vehicle (0.1% DMSO). The procedure: as §1, §2, §3, §4

human MALT-1 protein, sequence (Q9UDY8 whole entry): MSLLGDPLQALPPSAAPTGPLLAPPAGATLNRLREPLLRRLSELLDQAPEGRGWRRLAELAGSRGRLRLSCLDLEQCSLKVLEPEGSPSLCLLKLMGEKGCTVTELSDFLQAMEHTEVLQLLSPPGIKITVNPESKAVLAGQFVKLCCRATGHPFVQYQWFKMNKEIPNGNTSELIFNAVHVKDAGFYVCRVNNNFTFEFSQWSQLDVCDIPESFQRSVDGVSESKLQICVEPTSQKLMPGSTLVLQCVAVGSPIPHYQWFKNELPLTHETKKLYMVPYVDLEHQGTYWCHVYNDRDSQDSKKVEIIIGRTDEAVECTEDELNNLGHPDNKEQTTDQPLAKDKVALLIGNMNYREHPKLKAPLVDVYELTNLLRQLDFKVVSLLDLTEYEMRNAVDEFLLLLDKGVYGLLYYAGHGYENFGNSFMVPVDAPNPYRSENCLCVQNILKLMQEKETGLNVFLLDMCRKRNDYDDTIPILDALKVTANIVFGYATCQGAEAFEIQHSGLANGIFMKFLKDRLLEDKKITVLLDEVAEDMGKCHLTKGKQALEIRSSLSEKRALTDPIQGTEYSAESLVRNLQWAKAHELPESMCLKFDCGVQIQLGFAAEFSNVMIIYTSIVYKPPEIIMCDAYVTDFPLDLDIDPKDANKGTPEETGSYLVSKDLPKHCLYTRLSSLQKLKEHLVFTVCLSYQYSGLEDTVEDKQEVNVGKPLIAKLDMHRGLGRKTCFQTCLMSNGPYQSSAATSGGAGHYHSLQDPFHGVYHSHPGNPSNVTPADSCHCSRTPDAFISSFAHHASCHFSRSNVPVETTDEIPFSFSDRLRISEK

By EC50 is commonly meant the concentration at which the effect is half-maximal. By fold induction is commonly meant the ratio of treated to control signal. With `CO[C@@H](C)c1c(Nc2ccc([C@H](N(C)C(=O)C3CCN(C(=O)C(C)(C)O)CC3)C(F)(F)F)cc2)cnc2sc(C)nc12` [Example 23, 1-(2-hydroxy-2-methylpropanoyl)-N-methyl-N-{(1S)-2,2,2-trifluoro-1-[4-({7-[(1S)-1-methoxyethyl]-2-methyl[1,3]thiazolo[5,4-b]pyridin-6-yl}amino)phenyl]ethyl}piperidine-4-carboxamide], the EC50 at human MALT-1 protein was 139 nM; in the data set on OCI-LY3 IL6, 210 nM. The “CYP3A4 % of positive control (%)” value in the data set with CYP 3A4 mRNA is “(−4.35) %”. Also, the fold induction at 1 day, 10 µM in the data set on CYP3A4 mRNA was 0.677.
The corresponding values for `CO[C@@H](C)c1c(Nc2ccc([C@H](N(C)C(=O)C3CCN(C(=O)C(O)CO)CC3)C(F)(F)F)cc2)cnc2sc(C)nc12` (stereo partly drawn) [Example 24, 1-(2,3-dihydroxypropanoyl)-N-methyl-N-{(1S)-2,2,2-trifluoro-1-[4-({7-[(1S)-1-methoxyethyl]-2-methyl[1,3]thiazolo[5,4-b]pyridin-6-yl}amino)phenyl]ethyl}piperidine-4-carboxamide] are 979 nM, 12200 nM, “(7.62) %” and 1.49.
In the same order, the values of `CO[C@@H](C)c1c(Nc2ccc([C@H](N(C)C(=O)C3CCN(C(=O)[C@@H](C)O)CC3)C(F)(F)F)cc2)cnc2sc(C)nc12` [Example 25, 1-[(2R)-2-hydroxypropanoyl]-N-methyl-N-{(1S)-2,2,2-trifluoro-1-[4-({7-[(1S)-1-methoxyethyl]-2-methyl[1,3]thiazolo [5,4-b]pyridin-6-yl}amino)phenyl]ethyl}piperidine-4-c arboxamide] are 67 nM, 250 nM, “(2.45) %” and 1.16.
In the same order, the values of `CO[C@@H](C)c1c(Nc2ccc([C@H](N(C)C(=O)C3CCN(C(=O)[C@H](C)O)CC3)C(F)(F)F)cc2)cnc2sc(C)nc12` [Example 26, 1-[(2S)-2-hydroxypropanoyl]-N-methyl-N-{(1S)-2,2,2-trifluoro-1-[4-({7-[(1S)-1-methoxyethyl]-2-methyl[1,3]thiazolo [5,4-b]pyridin-6-yl}amino)phenyl]ethyl}piperidine-4-c arboxamide] are 393 nM, 1150 nM, “(2.57) %” and 1.17.
For `CO[C@@H](C)c1c(Nc2ccc([C@H](N(C)C(=O)C3CCN(C(=O)[C@H](O)CO)CC3)C(F)(F)F)cc2)cnc2sc(C)nc12` [Example 27, 1-[(2R)-2,3-dihydroxypropanoyl]-N-methyl-N-{(1S)-2,2,2-trifluoro-1-[4-({7-[(1 S)-1-methoxyethyl]-2-methyl[1,3]thiazolo [5,4-b]pyridin-6-yl}amino)phenyl]ethyl}piperidine-4-carboxamide], the concentration for a half-maximal effect (EC50) at human MALT-1 protein turned out to be 70 nM; in the data set on OCI-LY3 IL6, 410 nM. Further, in the data set with CYP 3A4 mRNA, the “CYP3A4 % of positive control (%)” value is reported as “(7.55) %”. Also, the fold induction at 1 day, 10 µM in the data set with CYP3A4 mRNA turned out to be 1.47.
Consider `CO[C@@H](C)c1c(Nc2ccc([C@@H](C(F)F)N(C)C(=O)C3CCN(C(=O)CO)CC3)cc2)cnc2sc(C)nc12` [Example 28, N-{(1S)-2,2-difluoro-1-[4-({7-[(1S)-1-methoxyethyl]-2-methyl[1,3]thiazolo[5,4-b]pyridin-6-yl}amino)phenyl]ethyl}-1-(hydroxyacetyl)-N-methylpiperidine-4-carboxamide], for which the half-maximal effective concentration (EC50) stood at 138 nM at human MALT-1 protein and 420 nM with OCI-LY3 IL6. In the data set with CYP 3A4 mRNA, the “CYP3A4 % of positive control (%)” value was “(15.1) %”. Besides, in the data set with CYP3A4 mRNA, the fold induction at 1 day, 10 µM worked out at 2.24.
Take `CO[C@@H](C)c1c(Nc2ccc([C@@H](C(F)F)N(C)C(=O)C3CCN(C(C)=O)CC3)cc2)cnc2sc(C)nc12` [Example 29, 1-acetyl-N-{(1S)-2,2-difluoro-1-[4-({7-[(1S)-1-methoxyethyl]-2-methyl[1,3]thiazolo[5,4-b]pyridin-6-yl}amino)phenyl]ethyl}-N-methylpiperidine-4-carboxamide]: the EC50 on human MALT-1 protein is 232 nM; in the data set on OCI-LY3 IL6, 300 nM. In addition, the “CYP3A4 % of positive control (%)” value in the data set on CYP 3A4 mRNA is listed as “(27.8) %”. Also, the fold induction at 1 day, 10 µM in the data set with CYP3A4 mRNA was 3.29.
The corresponding values for `CO[C@@H](C)c1c(Nc2ccc([C@H](N(C)C(=O)C3CCN(C(=O)[C@@H](O)CO)CC3)C(F)(F)F)cc2)cnc2sc(C)nc12` [Example 30, 1-[(25)-2,3-dihydroxypropanoyl]-N-methyl-N-{(1S)-2,2,2-trifluoro-1-[4-({7-[(1S)-1-methoxyethyl]-2-methyl[1,3]thiazolo[5,4-b]pyridin-6-yl}amino)phenyl]ethyl}piperidine-4-carboxamide] are 82 nM, 710 nM, “(5) %” and 1.49.
In the same order, the values of `CO[C@H](c1c(Nc2ccc([C@@H](C(F)F)N(C)C(=O)C3CCN(C(=O)CO)CC3)cc2)cnc2sc(C)nc12)C(F)F` [Example 31, N-{(1S)-1-[4-({7-[(1R)-2,2-difluoro-1-methoxyethyl]-2-methyl[1,3]thiazolo[5,4-b]pyridin-6-yl}amino)phenyl]-2,2-difluoroethyl}-1-(hydroxyacetyl)-N-methylpiperidine-4-carboxamide] are 82 nM, 440 nM, “(4.87) %” and 1.37.
Turning to `CO[C@@H](c1c(Nc2ccc([C@H](N(C)C(=O)C3CCN(C(=O)CO)CC3)C(F)(F)F)cc2)cnc2sc(C)nc12)C(F)F` [Example 32, N-{(1S)-1-[4({7-[(1S)-2,2-difluoro-1-methoxyethyl]-2-methyl[1,3]thiazolo [5,4-b]pyridin-6-yl}amino)phenyl]-2,2,2-trifluoroethyl}-1-(hydroxyacetyl)-N-methylpiperidine-4-carboxamide], the concentration giving a half-maximal response (EC50) was determined as 113 nM on human MALT-1 protein and 250 nM in the data set with OCI-LY3 IL6. For the same compound, the “CYP3A4 % of positive control (%)” value with CYP 3A4 mRNA was “(2.56) %”. For the same compound, the fold induction at 1 day, 10 µM in the data set on CYP3A4 mRNA amounted to 1.2.
The corresponding values for `CO[C@H](C)c1c(Nc2ccc([C@H](N(C)C(=O)C3CCN(C(=O)CO)CC3)C(F)(F)F)cc2)cnc2sc(C)nc12` [Example 34, 1-(hydroxyacetyl)-N-methyl-N-1{(1S)-2,2,2-trifluoro-1-[4-({7-[(1R)-1-methoxyethyl]-2-methyl[1,3]thiazolo[5,4-b]pyridin-6-yl}amino)phenyl]ethyl}piperidine-4-carboxamide] are 112 nM, 190 nM, “(13) %” and 2.11.

The values are drawn from US20230312601A1, “THIAZOLO[5,4-B]PYRIDINE MALT-1 INHIBITORS” (AbbVie Inc., priority 2022, published 2023).
